Measured values from US20240287089A1, “Preparation and Uses of 7-Azaindenoisoquinolines” (Purdue Research Foundation, priority 0001, published 2024).
Values belong to the compound of their own block, whether it stands above or below them.

Experiments:
[1] = Brain penetration and plasma/brain pharmacokinetics in combination with Temodar or Lynparza
OVCAR-3 (Ovarian) = assay: NCI-60 cytotoxicity assay; format: cell-based, human; conditions: Homo sapiens; OVCAR-3 ovarian; 48 h, sulforhodamine B; read-out: Comparative Cytotoxicity GI50, Ovarian OVCAR-3
Experimental: (§1) The antiproliferative activities of the indenoisquinoline compounds are determined in the NCI-60 cancer cell lines of the National Cancer Institute Developmental Therapeutics Program (NCI-DTP). […] Cancer cells are incubated with the test compounds at five concentrations ranging from 100 μM to 10 nM for 48 h. After the treated cancer cells are stained with sulforhodamine B dye, the percentage growth is plotted as a function of the common logarithm of the tested compound concentration. […] The approximate average of GI50 values across the entire panel of NCI-60 cancer cell lines for each compound is recorded as the MGM value.
(§2) NCI-60 Cytotoxicity Assay. Compounds were submitted to the National Cancer Institute Developmental Therapeutic Program to determine their growth-inhibitory potentials in NCI-60 cell lines. All compounds satisfied the pre-screening proceeded into the 5-dose cell viability assay, in which cells were treated for 48 h at 5 dosages ranging from 100 μM to 10 nM.

SN12C (Renal) = assay: NCI-60 cytotoxicity assay; format: cell-based, human; conditions: Homo sapiens; SN12C renal; 48 h, sulforhodamine B; read-out: Comparative Cytotoxicity GI50, Renal SN12C
Experimental: as §1, §2

HCT-116 (Colon) = assay: NCI-60 cytotoxicity assay; format: cell-based, human; conditions: Homo sapiens; HCT-116 colon; 48 h, sulforhodamine B; read-out: Comparative Cytotoxicity GI50, Colon HCT-116
Experimental: as §1, §2

DU-145 (Prostate) = assay: NCI-60 cytotoxicity assay; format: cell-based, human; conditions: Homo sapiens; DU-145 prostate; 48 h, sulforhodamine B; read-out: Comparative Cytotoxicity GI50, Prostate DU-145
Experimental: as §1, §2

MCF7 (Breast) = assay: NCI-60 cytotoxicity assay; format: cell-based, human; conditions: Homo sapiens; MCF7 breast; 48 h, sulforhodamine B; read-out: Comparative Cytotoxicity GI50, Breast MCE7
Experimental: as §1, §2

UACC-62 (Melanoma) = assay: NCI-60 cytotoxicity assay; format: cell-based, human; conditions: Homo sapiens; UACC-62 melanoma; 48 h, sulforhodamine B; read-out: Comparative Cytotoxicity GI50, Melanoma UACC-62
Experimental: as §1, §2

HOP-62 (Lung) = assay: NCI-60 cytotoxicity assay; format: cell-based, human; conditions: Homo sapiens; HOP-62 lung; 48 h, sulforhodamine B; read-out: Comparative Cytotoxicity GI50, Lung HOP-62
Experimental: as §1, §2

NCI-60 cancer cell lines = assay: NCI-60 cytotoxicity assay, MGM; format: cell-based; conditions: Homo sapiens; entire panel of NCI-60 cancer cell lines; read-out: MGM (approximate average of GI50 values across the NCI-60 panel)
Experimental: as §1, §2

SF-539 (CNS) = assay: NCI-60 cytotoxicity assay; format: cell-based; conditions: Homo sapiens; SF-539 CNS; 48 h, sulforhodamine B; read-out: Comparative Cytotoxicity GI50, CNS SF-539
Experimental: as §1, §2

Caco-2 cells = assay: Caco-2 permeability; format: in vitro ADME
[2] = Lynparza 100 mg/kg PO + LMP400 10 mg/kg IV, 0.5 h
[3] = Lynparza 100 mg/kg PO + LMP400 10 mg/kg IV, 1 h
[4] = Lynparza 100 mg/kg PO + LMP400 10 mg/kg IV, 2 h
[5] = Lynparza 100 mg/kg PO + LMP400 10 mg/kg IV, 4 h
[6] = Lynparza 100 mg/kg PO + LMP400 10 mg/kg IV, 8 h
[7] = Lynparza 100 mg/kg PO + LMP400 10 mg/kg IV, 24 h
[8] = Lynparza 100 mg/kg PO + LMP744 10 mg/kg IV, 0.25 h
[9] = Lynparza 100 mg/kg PO + LMP744 10 mg/kg IV, 0.5 h
[10] = Lynparza 100 mg/kg PO + LMP744 10 mg/kg IV, 1 h
[11] = Lynparza 100 mg/kg PO + LMP744 10 mg/kg IV, 2 h
[12] = Lynparza 100 mg/kg PO + LMP744 10 mg/kg IV, 4 h
[13] = Lynparza 100 mg/kg PO + LMP744 10 mg/kg IV, 8 h
[14] = Lynparza 100 mg/kg PO + LMP744 10 mg/kg IV, 24 h

Brain Conc ([1]; Lynparza 100 mg/kg PO + LMP400 10 mg/kg IV, 0.25 h): 13.1 ± 6.99 nM | Brain Conc [1, 2]: 33.36 ± 18.87 nM | Plasma Conc [1, 2]: 1384 ± 929 nM | Brain Conc [1, 3]: 50.03 ± 9.79 nM | Plasma Conc [1, 3]: 2644 ± 762 nM | Brain Conc [1, 4]: 30.44 ± 15.89 nM | Plasma Conc [1, 4]: 1637 ± 1051 nM | Brain Conc [1, 5]: 18.39 ± 8.59 nM | Plasma Conc [1, 5]: 755 ± 460 nM | Brain Conc [1, 6]: BLOQ | Plasma Conc [1, 6]: 166 ± 208 nM | Brain Conc [1, 7]: BLOQ | Plasma Conc [1, 7]: BLOQ | Brain Conc [1, 8]: BLOQ | Plasma Conc [1, 8]: 345 ± 101 nM | Brain Conc [1, 9]: 12.1 ± 0.53 nM | Brain/Plasma Conc Ratio [1, 9]: 0.02 | Plasma Conc [1, 9]: 555 ± 93.4 nM | Brain Conc [1, 10]: 14.10 ± 7.30 nM | Brain/Plasma Conc Ratio [1, 10]: 0.01 | Plasma Conc [1, 10]: 961 ± 189 nM | Brain Conc [1, 11]: 44.9 ± 20.08 nM | Plasma Conc [1, 11]: 1610 ± 968 nM | Brain Conc [1, 12]: 25.4 ± 6.52 nM | Plasma Conc [1, 12]: 1110 ± 250 nM | Brain Conc [1, 13]: BLOQ | Plasma Conc [1, 13]: 314 ± 185 nM | Brain Conc [1, 14]: BLOQ | Plasma Conc [1, 14]: BLOQ | concentration at 0.25 h ([1]; mouse, plasma, oral, Plasma Conc, Lynparza 100 mg/kg PO + LMP400 10 mg/kg IV, 0.25 h): 506 ± 423 nM
SMILES: O=C(c1cc(Cc2n[nH]c(=O)c3ccccc23)ccc1F)N1CCN(C(=O)C2CC2)CC1 [Lynparza]

SMILES: COc1cnc2c(c1)C(=O)c1c-2n(CCCNCCO)c(=O)c2cc(OC)c(OC)cc12 [A12]
GI50 (OVCAR-3 (Ovarian)): 4.52 µM | GI50 (SN12C (Renal)): 3.28 µM | GI50 (HCT-116 (Colon)): 1.15 µM | GI50 (DU-145 (Prostate)): 0.73 µM | GI50 (MCF7 (Breast)): 0.17 µM | GI50 (UACC-62 (Melanoma)): 1.17 µM | GI50 (HOP-62 (Lung)): 0.35 µM | GI50 (NCI-60 cancer cell lines): 2.09 µM | GI50 (SF-539 (CNS)): 0.49 µM

SMILES: COc1cc2c3c(n(CCCN4CCCC4)c(=O)c2cc1OC)-c1cc2c(cc1C3=O)OCO2 [A4]
GI50 (OVCAR-3 (Ovarian)): 1.5 µM | GI50 (SN12C (Renal)): 1.64 µM | GI50 (HCT-116 (Colon)): 1.14 µM | GI50 (DU-145 (Prostate)): 1.31 µM | GI50 (MCF7 (Breast)): 0.38 µM | GI50 (UACC-62 (Melanoma)): 1.48 µM | GI50 (HOP-62 (Lung)): 0.8 µM | GI50 (NCI-60 cancer cell lines): 1.1 µM | GI50 (SF-539 (CNS)): 1.33 µM

SMILES: COc1cc2c3c(n(CCCNC4CCCC4)c(=O)c2cc1OC)-c1cc2c(cc1C3=O)OCO2 [A3]
GI50 (OVCAR-3 (Ovarian)): 1.64 µM | GI50 (SN12C (Renal)): 1.8 µM | GI50 (HCT-116 (Colon)): 1.2 µM | GI50 (DU-145 (Prostate)): 1.44 µM | GI50 (MCF7 (Breast)): 0.67 µM | GI50 (UACC-62 (Melanoma)): 13 µM | GI50 (HOP-62 (Lung)): 2.38 µM | GI50 (NCI-60 cancer cell lines): 2.69 µM | GI50 (SF-539 (CNS)): 1.51 µM

Efflux Ratio (Caco-2 cells; Caco-2): 25.25 | Recovery (%)AP-BL (Caco-2 cells; Caco-2): 88.64% | Recovery (%)BL-AP (Caco-2 cells; Caco-2): 106.70% | Papp (A→B) (Caco-2 cells; Caco-2, 5 μM, 2 h): 0.74 10^−6, cm/s | Papp (B→A) (Caco-2 cells; Caco-2, 5 μM, 2 h): 18.71 10^−6, cm/s
SMILES: C[C@H]1O[C@@H](O[C@H]2[C@@H](O)C[C@H](O[C@H]3[C@@H](O)C[C@H](O[C@H]4CC[C@@]5(C)[C@H](CC[C@@H]6[C@@H]5C[C@@H](O)[C@]5(C)[C@@H](C7=CC(=O)OC7)CC[C@]65O)C4)O[C@@H]3C)O[C@@H]2C)C[C@H](O)[C@@H]1O [Digoxin]
